Test [1] concerns the target T1, CB1 receptor (Homo sapiens, UniProt P21554). In words: cell-based. Further details: host or cells: PathHunter cell lines. The procedure:
(§1) The PathHunter® β-Arrestin assay monitors the activation of a GPCR in a homogenous, non-imaging assay format using a technology developed by DiscoverX called Enzyme Fragment Complementation (EFC) with β-galactosidase (3-Gal) as the functional reporter. […] EA is fused to β-Arrestin and PK is fused to the GPCR of interest.
(§2) PathHunter cell lines were expanded from freezer stocks according to standard procedures. Cells were seeded in a total volume of 20 μL into white walled, 384-well microplates and incubated at 37° C. for the appropriate time prior to testing. For agonist activity determination, cells were incubated with sample to induce response. Intermediate dilution of sample stocks was performed to generate 5× sample in assay buffer. 5 μL of 5× sample was added to cells and incubated at 37° C. or room temperature for 90 to 180 minutes. Vehicle concentration was 1%. Assay signal was generated through a single addition of 12.5 or 15 μL (50% v/v) of PathHunter Detection reagent cocktail, followed by a one hour incubation at room temperature. Microplates were read following signal generation with a PerkinElmer Envision™ instrument for chemiluminescent signal detection. Compound activity was analyzed using CBIS data analysis suite (ChemInnovation, CA). For agonist assays, percentage activity was calculated using the following formula: % Activity=100%×(mean RLU of test sample− mean RLU of vehicle control)/(mean MAX control ligand− mean RLU of vehicle control).

The target in test [2] is T2, CB2 receptor (Homo sapiens, UniProt P34972). In words: cell-based. Further details: host or cells: cAMP Hunter cell lines. The protocol: as §1, §2
T2 sequence (P34972 whole entry): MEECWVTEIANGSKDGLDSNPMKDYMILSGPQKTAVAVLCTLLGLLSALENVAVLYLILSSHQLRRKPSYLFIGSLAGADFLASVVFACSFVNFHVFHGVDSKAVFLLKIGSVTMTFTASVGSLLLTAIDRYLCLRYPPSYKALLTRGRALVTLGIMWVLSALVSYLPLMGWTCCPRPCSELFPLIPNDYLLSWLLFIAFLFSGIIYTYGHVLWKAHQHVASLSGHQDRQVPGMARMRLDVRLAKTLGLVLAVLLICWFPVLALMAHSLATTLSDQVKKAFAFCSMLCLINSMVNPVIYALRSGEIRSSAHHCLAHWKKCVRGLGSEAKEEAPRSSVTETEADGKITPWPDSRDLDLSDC
Test [3] concerns the target T1, CB1 receptor. The test is described as follows: CB1 competitive radioligand binding assay ([3H] SR141716A). Further details: expressed in transfected cells; host or cells: Chem-1 cells. The following applies: for inhibition at 0.5 µM: 0.5 μM compound, 2.0 nM [3H] SR141716A, 90 min 37° C. The protocol:
(§3) J Med Chem. 41(26): 5177-5187 (1998); and Munro S., et al. Molecular characterization of a peripheral receptor for cannabinoids. Nature 365:61-65 (1993).
CB1 Radioligand Binding Assay: A compound of the invention (0.5 μM in 1% DMSO) was incubated with Chem-1 cells expressing human recombinant CB1 receptor in buffer (50 mM HEPES, pH 7.4, 5 mM MgCl2, 1 mM CaCl2, 0.2% BSA) for 90 minutes at 37° C. in the presence of 2.0 nM [H^3] SR141716A (CB1 radioligand). % Inhibition was determined as a function of radioligand binding to the CB1 receptor.

Test [4] addresses T2, CB2 receptor. The test is described as follows: CB2 competitive radioligand binding assay ([3H] WIN-55,212-2). Further details: expressed in transfected cells; host or cells: CHO-K1 cells. The settings on record: for Fold Selectivity (CB1/CB2): Table 3, ratio of Ki CB1/CB2; for inhibition at 0.05 µM: 0.05 μM compound, 2.4 nM [3H] WIN-55,212-2, 90 min 37° C. The protocol: as §3
CB2 Radioligand Binding Assay: A compound of the invention (0.05 μM in 1% DMSO) was incubated with CHO-K1 cells expressing human recombinant CB2 receptor in buffer (20 mM HEPES, pH 7.0, 0.5% BSA) for 90 minutes at 37° C. in the presence of 2.4 nM [H^3] WIN-55,212-2 (CB2 radioligand). % Inhibition was determined as a function of radioligand binding to the […].

The mark [5] stands for this setting: PathHunter agonist mode, read-out: CB2 Activity (β-Arrestin).
Setting [6] is: PathHunter agonist mode, read-out: CB1 Activity (β-Arrestin).

Read-outs that look alike come from different tables or passages of the source.

T1 sequence (P21554 whole entry, the tested form may be a part): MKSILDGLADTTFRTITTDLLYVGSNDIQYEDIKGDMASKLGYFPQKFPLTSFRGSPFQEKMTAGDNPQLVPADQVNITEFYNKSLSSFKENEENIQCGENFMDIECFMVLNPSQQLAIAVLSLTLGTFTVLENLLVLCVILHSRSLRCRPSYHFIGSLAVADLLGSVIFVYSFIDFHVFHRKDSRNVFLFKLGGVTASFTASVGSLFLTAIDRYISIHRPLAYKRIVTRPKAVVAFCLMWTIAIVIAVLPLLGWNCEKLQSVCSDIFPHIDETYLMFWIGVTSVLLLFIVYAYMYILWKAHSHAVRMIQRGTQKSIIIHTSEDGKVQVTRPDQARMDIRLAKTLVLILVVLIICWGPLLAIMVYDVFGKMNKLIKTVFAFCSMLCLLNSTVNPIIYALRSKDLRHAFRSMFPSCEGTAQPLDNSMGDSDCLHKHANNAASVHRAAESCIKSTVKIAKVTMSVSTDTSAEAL

For the compound `CCCCCCC(C)(C)c1cc(O)c2c(c1)OC(C)(C)[C@@H]1CC=C(C(=O)NOC(C)(C)C)C[C@@H]21` [Compound 88, (6aR,10aR)-N-(tert-butoxy)-1-hydroxy-6,6-dimethyl-3-(2-methyloctan-2-yl)-6a,7,10,10a-tetrahydro-6H-benzo[c]chromene-9-carboxamide], the figures for the EC50 at CB1 receptor [1] and on CB2 receptor [2] (setting [5]) were 5.9 nM and 1.7 nM, respectively. For the same compound, the results for the inhibitory constant (Ki) on CB1 receptor [3] and at CB2 receptor [4] were 5.4 nM and 1 nM, respectively. Further, the “Fold Selectivity (CB1/CB2)” value at CB2 receptor [4] turned out to be 5.7.
On to `CCCCCCC(C)(C)c1cc(O)c2c(c1)OC(C)(C)[C@@H]1CC=C(C(=O)N3CCNCC3)C[C@@H]21` [Compound 104, ((6aR,10aR)-1-hydroxy-6,6-dimethyl-3-(2-methyloctan-2-yl)-6a,7,10,10a-tetrahydro-6H-benzo[c]chromen-9-yl)(piperazin-1-yl)methanone], for which the EC50 at CB1 receptor [1] was 4450 nM; on CB2 receptor [2] (setting [5]), 5 nM. Also, the Ki (usually the dissociation constant of the complex between target and ligand, obtained from inhibition or displacement) turned out to be 260 nM on CB1 receptor [3] and 30 nM at CB2 receptor [4]. Further, the “Fold Selectivity (CB1/CB2)” value at CB2 receptor [4] is recorded as 8.7.
Regarding `CCCCCCC(C)(C)c1cc(O)c2c(c1)OC(C)(C)[C@@H]1CC=C(C(=O)N[C@H](Cc3ccc(O)cc3)C(=O)O)C[C@@H]21` [Compound 3], the EC50 at CB1 receptor [1] and on CB2 receptor [2] was over 3000 nM in each case. In addition, the inhibition – broadly, the drop in the measured response relative to a control, in per cent – at 0.5 µM at CB1 receptor [3] was 13%. The inhibition at 0.05 µM on CB2 receptor [4] amounted to 8%.
As for `CCCCCCC(C)(C)c1cc(O)c2c(c1)OC(C)(C)[C@@H]1CC=C(C(=O)NS(C)(=O)=O)C[C@@H]21` [Compound 108, (6aR,10aR)-1-hydroxy-6,6-dimethyl-3-(2-methyloctan-2-yl)-N-(methylsulfonyl)-6a,7,10,10a-tetrahydro-6H-benzo[c]chromene-9-carboxamide], the EC50 at CB1 receptor [1] worked out at 1430 nM; at CB2 receptor [2], 29.5 nM. The inhibition constant Ki on CB1 receptor [3] was over 3000 nM; at CB2 receptor [4], 302 nM. Further, the “Fold Selectivity (CB1/CB2)” value at CB2 receptor [4] is given as over 9.9.
On to `CCCCCCC(C)(C)c1cc(O)c2c(c1)OC(C)(C)[C@@H]1CC=C(C(=O)NOC)C[C@@H]21` [Compound 107], for which the values for the EC50 on CB1 receptor [1] (setting [6]) and at CB2 receptor [2] (setting [5]) were 49.4 nM and 2.9 nM, respectively. The Ki at CB1 receptor [3] worked out at 36.2 nM; at CB2 receptor [4] it was 4.9 nM. Moreover, the “Fold Selectivity (CB1/CB2)” value on CB2 receptor [4] was determined as 7.4.
Turning to `CCCCCCC(C)(C)c1cc(O)c2c(c1)OC(C)(C)[C@@H]1CC=C(C(=O)NC3CNC3)C[C@@H]21` [Compound 103, (6aR,10aR)-N-(azetidin-3-yl)-1-hydroxy-6,6-dimethyl-3-(2-methyloctan-2-yl)-6a,7,10,10a-tetrahydro-6H-benzo[c]chromene-9-carboxamide], the figures for the EC50 on CB1 receptor [1] and at CB2 receptor [2] (setting [5]) were 1710 nM and 9.5 nM, respectively. In addition, the figures for the Ki at CB1 receptor [3] and at CB2 receptor [4] were 270 nM and 51 nM, respectively. For the same compound, on CB2 receptor [4], the “Fold Selectivity (CB1/CB2)” value stood at 5.3.
For `CCCCCCC(C)(C)c1cc(O)c2c(c1)OC(C)(C)[C@@H]1CC=C(C(=O)NCC(=O)O)C[C@@H]21` [Compound 1, ((6aR,10aR)-1-Hydroxy-6,6-dimethyl-3-(2-methyloctan-2-yl)-6a,7,10,10a-tetrahydro-6H-benzo[c]chromene-9-carbonyl)glycine], the figures for the EC50 at CB1 receptor [1] (setting [6]) and on CB2 receptor [2] (setting [5]) were over 3000 nM and 58 nM, respectively. Further, on CB1 receptor [3], the inhibition at 0.5 µM worked out at 10%. Besides, the Ki is over 3000 nM at CB1 receptor [3] (Table 2, read-out: CB1 Binding Ki) and 1310 nM on CB2 receptor [4] (Table 2, read-out: CB2 Binding Ki). Also, on CB2 receptor [4], the inhibition at 0.05 µM is 4%.
For `CCCCCCC(C)(C)c1cc(O)c2c(c1)OC(C)(C)[C@H]1CC=C(C(=O)O)C[C@H]21` [Compound 20, (6aS,10aS)-1-Hydroxy-6,6-dimethyl-3-(2-methyloctan-2-yl)-6a,7,10,10a-tetrahydro-6H-benzo[c]chromene-9-carboxylic acid], the EC50 at CB1 receptor [1] and at CB2 receptor [2] was over 3000 nM each time. For the same compound, the inhibition at 0.5 µM on CB1 receptor [3] was -10%. The inhibition at 0.05 µM on CB2 receptor [4] came out at 9%.
Turning to `CCCCCCC(C)(C)c1cc(O)c2c(c1)OC(C)(C)[C@@H]1CC=C(C(=O)NC(C)(C)CC(=O)O)C[C@@H]21` [Compound 27, 3-((6aR,10aR)-1-Hydroxy-6,6-dimethyl-3-(2-methyloctan-2-yl)-6a,7,10,10a-tetrahydro-6H-benzo[c]chromene-9-carboxamido)-3-methylbutanoic acid], the EC50 on CB1 receptor [1] (setting [6]) and on CB2 receptor [2] (setting [5]) was over 3000 nM in each case. At CB1 receptor [3], the inhibition at 0.5 µM amounted to 9%. Moreover, at CB2 receptor [4], the inhibition at 0.05 µM was 7%.
Regarding `CCCCCCC(C)(C)c1cc(O)c2c(c1)OC(C)(C)[C@@H]1CC=C(C(=O)NC3(C(F)(F)F)CCC3)C[C@@H]21` [Compound 96, (6aR,10aR)-1-hydroxy-6,6-dimethyl-3-(2-methyloctan-2-yl)-N-(1-(trifluoromethyl)cyclobutyl)-6a,7,10,10a-tetrahydro-6H-benzo[c]chromene-9-carboxamide], the results for the EC50 at CB1 receptor [1] and on CB2 receptor [2] (setting [5]) were 12.8 nM and 3 nM, respectively. Also, the figures for the inhibition constant (Ki) on CB1 receptor [3] and on CB2 receptor [4] were 25 nM and 1.3 nM, respectively. Moreover, the “Fold Selectivity (CB1/CB2)” value at CB2 receptor [4] came to 19.2.
Regarding `CCCCCCC(C)(C)c1cc(O)c2c(c1)OC(C)(C)[C@@H]1CC=C(C(=O)NC3COC3)C[C@@H]21` [Compound 90, (6aR,10aR)-1-hydroxy-6,6-dimethyl-3-(2-methyloctan-2-yl)-N-(oxetan-3-yl)-6a,7,10,10a-tetrahydro-6H-benzo[c]chromene-9-carboxamide], the EC50 at CB1 receptor [1] stood at 128 nM; on CB2 receptor [2] (setting [5]), 2.7 nM. Moreover, the inhibitory constant (Ki) on CB1 receptor [3] amounted to 10 nM; at CB2 receptor [4], 2.5 nM. For the same compound, the “Fold Selectivity (CB1/CB2)” value on CB2 receptor [4] was determined as 4.0.
Turning to `CCCC(C)(C)c1cc(O)c2c(c1)OC(C)(C)[C@@H]1CC=C(C(=O)NC3(C(F)(F)F)CC3)C[C@@H]21` [Compound 102, (6aR,10aR)-1-hydroxy-6,6-dimethyl-3-(2-methylpentan-2-yl)-N-(1-(trifluoromethyl)cyclopropyl)-6a,7,10,10a-tetrahydro-6H-benzo[c]chromene-9-carboxamide], the EC50 is over 3000 nM on CB1 receptor [1] (setting [6]) and 30.5 nM at CB2 receptor [2] (setting [5]). Further, the Ki came to 860 nM at CB1 receptor [3] and 51 nM on CB2 receptor [4]. Further, the “Fold Selectivity (CB1/CB2)” value at CB2 receptor [4] is given as 16.9.
As to `CCCCCCC(C)(C)c1cc(O)c2c(c1)OC(C)(C)[C@@H]1CC=C(C(=O)OCC(O)CO)C[C@@H]21` (stereo partly drawn) [Compound 22, 2,3-Dihydroxypropyl (6aR,10aR)-1-hydroxy-6,6-dimethyl-3-(2-methyloctan-2-yl)-6a,7,10,10a-tetrahydro-6H-benzo[c]chromene-9-carboxylate], the EC50 on CB1 receptor [1] amounted to 42 nM; on CB2 receptor [2] (setting [5]) it was 4 nM. The inhibition at 0.5 µM on CB1 receptor [3] was determined as 107%. Besides, the inhibition at 0.05 µM at CB2 receptor [4] was 92%.
Turning to `CCCCCCC(C)(C)c1cc(O)c2c(c1)OC(C)(C)[C@@H]1CC=C(C(=O)NCCC(=O)O)C[C@@H]21` [Compound 26, 3-((6aR,10aR)-1-Hydroxy-6,6-dimethyl-3-(2-methyloctan-2-yl)-6a,7,10,10a-tetrahydro-6H-benzo[c]chromene-9-carboxamido)propanoic acid], the EC50 on CB1 receptor [1] (setting [6]) and at CB2 receptor [2] (setting [5]) was over 3000 nM in each case. Also, the inhibition at 0.5 µM at CB1 receptor [3] amounted to 9%. Further, the inhibition at 0.05 µM at CB2 receptor [4] came out at 2%.
Regarding `CCCCCCC(C)(C)C1=CC2=C(C(=O)C1=O)[C@@H]1CC(C(=O)O)=CC[C@H]1C(C)(C)O2` [Compound 30, (6aR,10aR)-6,6-dimethyl-3-(2-methyloctan-2-yl)-1,2-dioxo-2,6,6a,7,10,10a-hexahydro-1H-benzo[c]chromene-9-carboxylic acid], the EC50 at CB1 receptor [1] (setting [6]) and on CB2 receptor [2] (setting [5]) was over 3000 nM in each case. Moreover, at CB1 receptor [3], the inhibition at 0.5 µM was determined as 19%. Also, the inhibition at 0.05 µM at CB2 receptor [4] is -2%.
For the compound `CC(C)(CCCCCC(=O)O)c1cc(O)c2c(c1)OC(C)(C)[C@@H]1CC=C(C(=O)O)C[C@@H]21` [Compound 40], the figures for the EC50 at CB1 receptor [1] (setting [6]) and on CB2 receptor [2] (setting [5]) were over 10000 nM and over 1000 nM, respectively.
